For one data set, the system named is PDK1. Description: Immunoblot of PDK1 protein expression in P493-6 cells. In kind it is cell-based, human. As to conditions: for PDK1 expression: P493-6 cells after electroporation with 100 nM siRNA, FIG. 4A.
Another data set has as its system P493-6 cells. Description: Growth curves of P493-6 cells electroporated with siRNA. In kind it is cell-based, human. The conditions noted are these: 100 nM siRNA electroporated; hypoxia (0.1% O2); versus scrambled control siRNA; FIG. 4B. The procedure: siRNA targeting human PDK1 was designed and purchased from Dharmacon Research Inc (Lafayette, Colo.). 3×10^6 P493-6 cells were electroporated (1500 uF and 240 volts) with 100 nM of PDK1 siRNA (5′-CUACAUGAGUCGCAUUUCAdTdT-3′) (SEQ ID NO: 1). or scrambled control siRNA (5′-CACGCUCGGUCAAAAGGUUdTdT-3′) (SEQ ID NO: 7). in a 4 mm cuvette (BTX) using a Gene Pulser Xcell (Bio-Rad, Hercules, Calif.). The following day, 5×10^5 viable cells were subjected to hypoxic exposure (0.1% O2). At indicated times, viable cells were counted for growth curve, and the cellular proteins were harvested for Western blot analysis.

Data set [1] concerns Hif1a−/− MEFs. Description: Cell proliferation assay (viable cell count) of Hif1a−/− MEFs.
Data set [2] relates to Hif1a−/− MEFs.

Like-named read-outs stand apart in the source and are kept apart here.

On to “5′-CACGCUCGGUCAAAAGGUUdTdT-3′ (dTdT overhang, complementary strand not cited, chemistry not fully specified) [scrambled control siRNA]”, for which, in the data set on PDK1, the PDK1 expression entry is recorded as “did not reduce PDK1 expression”.
“5′-CUACAUGAGUCGCAUUUCAdTdT-3′ (dTdT overhang, complementary strand not cited, chemistry not fully specified) [PDK1 siRNA, siRNA targeting human PDK1, designed and purchased from Dharmacon]”: the “growth of P493-6 cells in hypoxia” value with P493-6 cells is on record as “impaired”. Further, the PDK1 expression entry with PDK1 is listed as “reduced”.
Regarding `[Cl-].[Cl-].[Co+2]` [CoCl2], in the data set on PDK1, the PDK1 levels result is reported as “increased”.
Turning to `C=C(C)[C@H]1Cc2c(ccc3c2O[C@@H]2COc4cc(OC)c(OC)cc4[C@@H]2C3=O)O1` [Rotenone, rotenone], the “rescue (growth) of hypoxic Hif1a−/− mouse embryo fibroblasts” value in the data set with Hif1a−/− MEFs [1] (0.1 μM rotenone, hypoxic (0.5% O2), FIG. 3D) is “able to rescue”. The “proliferation of normoxic Hif1a−/− MEFs” value in the data set with Hif1a−/− MEFs [1] (0.1 μM rotenone, normoxic (20% O2), FIG. 3D) is given as “inhibited proliferation”.
For the compound `CO/C(=C/C(N)=O)[C@H](C)[C@H](/C=C/c1csc(-c2csc([C@@H](C)/C=C/C=C/C(C)C)n2)n1)OC` [myxothiazol], the “toxicity to normoxic and hypoxic Hif1a−/− MEFs” value in the data set with Hif1a−/− MEFs [1] (both normoxic and hypoxic cells) was “toxic”.
Take antimycin A: the “toxicity to normoxic and hypoxic Hif1a−/− MEFs” value in the data set with Hif1a−/− MEFs [2] was “toxic”.
